We go through one compound from patent publication US20230120564A1, “PYRIDO[3,4-D]PYRIMIDINE DERIVATIVE AND THERAPEUTIC PHARMACEUTIC COMPOSITION COMPRISING SAME” (KOREA INSTITUTE OF SCIENCE AND TECHNOLOGY, priority 2020, published 2023).

Molecules are shown by their SMILES.

Assay [1] deals with ACK1 (Homo sapiens, UniProt Q07912). Description: Kinase inhibitory activity, IC50. The assay is classed as biochemical. On the procedure: (§1) The inhibitory activities of the compounds of the present invention against two kinases, GCK and ACK1, were measured, and the IC50 values thereof were calculated. As a control, the following compound GNF7 was used.
Chain of ACK1 (Q07912 whole entry): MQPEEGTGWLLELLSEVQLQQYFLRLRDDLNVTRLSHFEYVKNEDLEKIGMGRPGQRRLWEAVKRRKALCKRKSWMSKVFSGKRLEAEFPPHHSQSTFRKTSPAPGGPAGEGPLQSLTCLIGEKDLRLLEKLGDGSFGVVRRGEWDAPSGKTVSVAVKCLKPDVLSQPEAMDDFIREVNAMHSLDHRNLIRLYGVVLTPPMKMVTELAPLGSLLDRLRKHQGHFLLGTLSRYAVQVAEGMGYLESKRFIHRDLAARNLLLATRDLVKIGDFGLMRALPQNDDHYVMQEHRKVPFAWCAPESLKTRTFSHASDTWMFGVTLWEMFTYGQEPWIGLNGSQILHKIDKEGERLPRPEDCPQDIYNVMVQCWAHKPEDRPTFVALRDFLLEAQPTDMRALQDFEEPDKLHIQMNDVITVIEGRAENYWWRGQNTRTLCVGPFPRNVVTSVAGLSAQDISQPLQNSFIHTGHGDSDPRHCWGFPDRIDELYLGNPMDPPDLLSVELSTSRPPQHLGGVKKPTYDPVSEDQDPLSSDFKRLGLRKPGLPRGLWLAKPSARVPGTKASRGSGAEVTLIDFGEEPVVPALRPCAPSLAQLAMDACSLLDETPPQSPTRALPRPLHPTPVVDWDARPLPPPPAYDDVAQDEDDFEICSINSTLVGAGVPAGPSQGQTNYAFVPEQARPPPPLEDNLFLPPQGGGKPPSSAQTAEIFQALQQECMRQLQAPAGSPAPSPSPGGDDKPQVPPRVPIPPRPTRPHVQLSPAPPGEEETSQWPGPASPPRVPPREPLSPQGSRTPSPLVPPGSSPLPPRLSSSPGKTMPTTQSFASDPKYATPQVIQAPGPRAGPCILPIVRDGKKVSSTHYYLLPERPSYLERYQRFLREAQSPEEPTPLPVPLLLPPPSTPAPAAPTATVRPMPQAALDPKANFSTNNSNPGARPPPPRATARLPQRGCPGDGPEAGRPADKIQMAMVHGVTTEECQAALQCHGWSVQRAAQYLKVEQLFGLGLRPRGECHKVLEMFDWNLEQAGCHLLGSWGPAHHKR
In assay [2] the target is T1, GCK (Homo sapiens, UniProt Q12851).
T1 sequence (Q12851 1-820): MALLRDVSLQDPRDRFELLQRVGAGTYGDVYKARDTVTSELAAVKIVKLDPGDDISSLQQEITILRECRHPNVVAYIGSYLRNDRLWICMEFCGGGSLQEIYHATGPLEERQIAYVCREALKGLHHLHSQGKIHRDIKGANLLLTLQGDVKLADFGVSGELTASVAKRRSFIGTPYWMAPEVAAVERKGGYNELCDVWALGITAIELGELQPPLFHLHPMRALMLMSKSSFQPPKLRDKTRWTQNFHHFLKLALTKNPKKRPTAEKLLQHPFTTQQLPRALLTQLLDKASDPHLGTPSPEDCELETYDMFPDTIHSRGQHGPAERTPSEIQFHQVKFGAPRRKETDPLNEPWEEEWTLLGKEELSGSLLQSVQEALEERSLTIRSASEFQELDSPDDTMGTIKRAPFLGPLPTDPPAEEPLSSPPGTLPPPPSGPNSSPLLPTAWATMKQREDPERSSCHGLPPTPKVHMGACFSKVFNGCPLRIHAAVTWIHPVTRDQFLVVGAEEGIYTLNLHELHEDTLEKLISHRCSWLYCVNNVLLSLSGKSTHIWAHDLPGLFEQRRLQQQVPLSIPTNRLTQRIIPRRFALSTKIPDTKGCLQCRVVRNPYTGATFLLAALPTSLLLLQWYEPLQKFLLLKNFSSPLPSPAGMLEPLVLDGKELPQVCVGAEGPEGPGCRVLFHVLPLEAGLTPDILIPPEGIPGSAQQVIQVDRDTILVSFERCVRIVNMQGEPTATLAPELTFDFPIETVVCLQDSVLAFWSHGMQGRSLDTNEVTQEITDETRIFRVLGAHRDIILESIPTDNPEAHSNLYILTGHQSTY
Description: Kinase inhibitory activity, IC50. It is filed as biochemical. On the procedure:
as §1

Assay [3] deals with OCI-AML3 (N-Ras Q61L). Description: Inhibition of cell proliferation (GI50). It is filed as cell-based. The conditions noted are these: Homo sapiens, OCI-AML-3; OCI-AML3 cell line; read-out: Proliferation inhibitory activity (GI50, μM) OCI-AML3 (N-Ras Q61L). On the procedure:
(§2) The inhibitory activities of the compounds of the present invention against the proliferation of the mt-NRAS (G12D) Ba/F3 and […] (mt-NRAS) cell lines were measured and the GI50 values thereof were calculated.
Referring to the results in Table 2, it can be seen that the compound of the present invention has inhibitory activity against the proliferation of the human acute myeloid leukemia cell line (OCI-AML3) having the NRAS mutant gene, and the effect thereof is remarkable. Therefore, it can be seen that the compound of the present invention is particularly effective as a therapeutic agent for acute myeloid leukemia (AML).

Assay [4] relates to Ba/F3 (N-Ras G12D). Description: Inhibition of cell proliferation (GI50). The assay is classed as cell-based. The following applies: Mus musculus, BaF3; mt-NRAS (G12D) Ba/F3 cell line; read-out: Proliferation inhibitory activity (GI50, μM) Ba/F3 (N-Ras G12D). As for the experimental part: as §2
Assay [5] deals with Ba/F3 (parental). Description: Inhibition of cell proliferation (GI50). The assay is classed as cell-based. The conditions noted are these: Mus musculus, BaF3; Ba/F3 (parental) cell line; read-out: Proliferation inhibitory activity (GI50, μM) Ba/F3 (parental). On the procedure:
The inhibitory activities of the compounds of the present invention against the proliferation of the Ba/F3 (parental) cell line were measured and the GI50 values thereof were calculated.

As for `Cc1ccc(Nc2ncc3cc(-c4cc(NC(=O)c5cccc(C(F)(F)F)c5)ccc4C)ncc3n2)cn1` [Compound No. 4, N-(4-methyl-3-(2-((6-methylpyridin-3-yl)amino)pyrido[3,4-d]pyrimidin-6-yl)phenyl)-3-(trifluoromethyl)benzamide], the figures for the IC50 in assay [1] and in assay [2] were below 100 nM and 100 to 1000 nM, respectively. Moreover, the GI50 in assay [3], in assay [4] and in assay [5] was below 0.5 µM in each case.
